As a reminder, the melting point is the temperature, or range, at which the solid turns liquid.

In turn, `COc1ccc(/C=C/c2cc(/C=C/c3c[nH]c4ccccc34)[nH]n2)cc1OCc1ccccn1` [Example 12, 3-[(1E)-2-(1H-indol-3-yl)ethenyl]-5-[(1E)-2-[4-methoxy-3-(2-pyridylmethoxy)phenyl]ethenyl]-1H-pyrazole] showed a melting point of 232 to 243 °C. In the case of `CC(C)c1ccc(/C=C/c2cc(/C=C/c3ccc4cc[nH]c4c3)[nH]n2)cc1` [Example 78, 3-[(1E)-2-(1H-indol-6-yl)ethenyl]-5-[(1E)-2-(4-isopropylphenyl)ethenyl]-1H-pyrazole] it was 208 to 212 °C. The molecule `COc1c(/C=C/c2cc(/C=C/c3ccc4cc[nH]c4c3)[nH]n2)cccc1OCc1ccccn1` [Example 22, 3-[(1E)-2-(1H-indol-6-yl)ethenyl]-5-[(1E)-2-[2-methoxy-3-(2-pyridylmethoxy)phenyl]ethenyl]-1H -pyrazole] had a melting point of 109 to 114 °C. The result for `C(=C\c1cc(/C=C/c2ccc3cc[nH]c3c2)[nH]n1)/c1ccc(-c2ccccc2)cc1` [Example 61, 3-[(1E)-2-(1H-indol-6-yl)ethenyl]-5-[(1E)-2-(4-phenylphenyl)ethenyl]-1H-pyrazole] reads 273 to 276 °C; that for `COc1cc(OCc2ccccn2)ccc1/C=C/c1cc(/C=C/c2ccc3[nH]nnc3c2)[nH]n1` [Example 30, 3-[(1E)-2-(1H-benzotriazol-5-yl)ethenyl]-5-[(1E)-2-[2-methoxy-4-(2-pyridylmethoxy)phenyl]ethenyl]-1H-pyrazole], 113 to 120 °C.

Regarding `C(=C\c1cc(/C=C/c2ccc3[nH]ccc3c2)[nH]n1)/c1cccc(OCc2ccccn2)c1` [Example 7, 3-[(1E)-2-(1H-indol-5-yl)ethenyl]-5-[(1E)-2-[3-(2-pyridylmethoxy)phenyl]ethenyl]-1H-pyrazole], the melting point was in the range of 183 to 186 °C. In the case of `COc1cc(OCc2ccccn2)ccc1/C=C/c1cc(/C=C/c2ccc3ccn(C(C)=O)c3c2)[nH]n1` [Example 73, 3-[(1E)-2-(1-acetyl-1H-indol-6-yl)ethenyl]-5-[(1E)-2-[2-methoxy-4-(2-pyridylmethoxy)phenyl]ethenyl]-1H-pyrazole] it was 182 to 187 °C; in that of `COc1ccc2[nH]cc(/C=C/c3cc(/C=C/c4ccc(OCc5ccccn5)cc4OC)n[nH]3)c2c1` [Example 100, 3-[(1E)-2-(5-methoxy-1H-indol-3-yl)ethenyl]-5-[(1E)-2-[2-methoxy-4-(2-pyridylmethoxy)phenyl]ethenyl]-1H-pyrazole], 189 to 195 °C; in that of `COc1cc(OCC2CCCCC2)ccc1/C=C/c1cc(/C=C/c2ccc3cc[nH]c3c2)[nH]n1` [Example 80, 3-[(1E)-2-[4-(cyclohexylmethoxy)-2-methoxyphenyl]ethenyl]-5-[(1E)-2-(1H-indol-6-yl)ethenyl]-1H-pyrazole], 104 to 108 °C.

`COc1cc(OCc2ccccn2)ccc1/C=C/c1cc(/C=C/c2cc3ccccc3o2)[nH]n1` [Example 33, 3-[(1E)-2-(benzofuran-2-yl)ethenyl]-5-[(1E)-2-[2-methoxy-4-(2-pyridylmethoxy)phenyl]ethenyl]-1H-pyrazole]: the melting point lay within 199.4 to 200.9 °C. The result for `COc1cc(OCc2ccccn2)ccc1/C=C/c1cc(/C=C/c2cccc3ncccc23)[nH]n1` [Example 69, 3-[(1E)-2-(quinolin-5-yl)ethenyl]-5-[(1E)-2-[2-methoxy-4-(2-pyridylmethoxy)phenyl]ethenyl]-1H-pyrazole] reads 107 to 120 °C. In the case of `COc1cc(O[C@@H]2O[C@H](CO)[C@@H](O)[C@H](O)[C@H]2O)ccc1/C=C/c1cc(/C=C/c2ccc3cc[nH]c3c2)[nH]n1` [Example 29, 3-[(1E)-2-(1H-indol-6-yl)ethenyl]-5-[(1E)-2-[4-[(β-D-glucopyranosyl)oxy]-2-methoxyphenyl]ethenyl]-1H-pyrazole] it was 194 to 199 °C; in that of `CCN(CC)c1ccc(/C=C/c2cc(/C=C/c3ccc4cc[nH]c4c3)[nH]n2)cc1` [Example 106, 3-[(1E)-2-(4-diethylaminophenyl)ethenyl]-5-[(1E)-2-(1H-indol-6-yl)ethenyl]-1H-pyrazole], 201 to 204 °C; in that of `COc1ccc(/C=C/c2cc(/C=C/c3ccc4cc[nH]c4c3)[nH]n2)cc1OCc1ccccn1` [Example 18, 3-[(1E)-2-(1H-indol-6-yl)ethenyl]-5-[(1E)-2-[4-methoxy-3-(2-pyridylmethoxy)phenyl]ethenyl]-1H-pyrazole], 110 to 117 °C.

As for `COc1cc(OCc2cccnc2)ccc1/C=C/c1cc(/C=C/c2ccc3[nH]ccc3c2)[nH]n1` [Example 44, 3-[(1E)-2-(1H-indol-5-yl)ethenyl]-5-[(1E)-2-[2-methoxy-4-(3-pyridylmethoxy)phenyl]ethenyl]-1H-pyrazole], the melting point lay within 127 to 135 °C. In the case of `C(=C\c1cc(/C=C/c2ccc3[nH]ccc3c2)[nH]n1)/c1ccc(OCc2ccccn2)cc1` [Example 4, 3-[(1E)-2-(1H-indol-5-yl)ethenyl]-5-[(1E)-2-[4-(2-pyridylmethoxy)phenyl]ethenyl]-1H-pyrazole] it was 95 to 102 °C; in that of `COc1cc(Br)c(/C=C/c2cc(/C=C/c3ccc4cc[nH]c4c3)[nH]n2)cc1O` [Example 60, 3-[(1E)-2-(2-bromo-5-hydroxy-4-methoxyphenyl)ethenyl]-5-[(1E)-2-(1H-indol-6-yl)ethenyl]-1H-pyrazole], 137 to 142 °C. `COc1ccc(COc2ccc(/C=C/c3cc(/C=C/c4ccc5cc[nH]c5c4)[nH]n3)c(OC)c2)cc1` [Example 68, 3-[(1E)-2-(1H-indol-6-yl)ethenyl]-5-[(1E)-2-[2-methoxy-4-(4-methoxybenzyloxy)phenyl]ethenyl]-1H-pyrazole] yielded a melting point of 211 to 214 °C. In the case of `C(=C\c1cc(/C=C/c2ccccc2-c2cccnc2)n[nH]1)/c1ccc2cc[nH]c2c1` [Example 59, 3-[(1E)-2-(1H-indol-6-yl)ethenyl]-5-[(1E)-2-[2-(3-pyridyl)phenyl]ethenyl]-1H-pyrazole] it was 248 to 255 °C; in that of `COc1cc(OCc2ccncc2)ccc1/C=C/c1cc(/C=C/c2c[nH]c3ccccc23)[nH]n1` [Example 43, 3-[(1E)-2-(1H-indol-3-yl)ethenyl]-5-[(1E)-2-[2-methoxy-4-(4-pyridylmethoxy)phenyl]ethenyl]-1H-pyrazole], 128 to 139 °C. The result for `COc1cc(OCc2ccccn2)ccc1/C=C/c1cc(/C=C/c2cccc3[nH]ccc23)[nH]n1` [Example 39, 3-[(1E)-2-(1H-indol-4-yl)ethenyl]-5-[(1E)-2-[2-methoxy-4-(2-pyridylmethoxy)phenyl]ethenyl]-1H-pyrazole] reads 108 to 113 °C. The result for `CN(C)c1ccc(/C=C/c2cc(/C=C/c3ccc4cc[nH]c4c3)[nH]n2)cc1` [Example 105, 3-[(1E)-2-(4-dimethylaminophenyl)ethenyl]-5-[(1E)-2-(1H-indol-6-yl)ethenyl]-1H-pyrazole] reads 224 to 227 °C. Turning to `COc1cc(OCc2ccccn2)ccc1/C=C/c1cc(/C=C/c2cc3ccccc3s2)[nH]n1` [Example 34, 3-[(1E)-2-(benzothiophen-2-yl)ethenyl]-5-[(1E)-2-[2-methoxy-4-(2-pyridylmethoxy)phenyl]ethenyl]-1H-pyrazole], the melting point lay within 231.1 to 232.1 °C. With `COc1ccc(/C=C/c2cc(/C=C/c3ccc4cc[nH]c4c3)[nH]n2)c(OC)c1` [Example 54, 3-[(1E)-2-(2,4-dimethoxyphenyl)ethenyl]-5-[(1E)-2-(1H-indol-6-yl)ethenyl]-1H-pyrazole], the melting point lay within 121 to 133 °C. In the case of `COc1cc(/C=C/c2cc(/C=C/c3ccc4cc[nH]c4c3)[nH]n2)cc(OCc2ccccn2)c1` [Example 25, 3-[(1E)-2-(1H-indol-6-yl)ethenyl]-5-[(1E)-2-[3-methoxy-5-(2-pyridylmethoxy)phenyl]ethenyl]-1H-pyrazole] it was 88 to 93 °C; in that of `COc1cc(OCc2ccncc2)ccc1/C=C/c1cc(/C=C/c2cc3ccccc3[nH]2)[nH]n1` [Example 53, 3-[(1E)-2-(1H-indol-2-yl)ethenyl]-5-[(1E)-2-[2-methoxy-4-(4-pyridylmethoxy)phenyl]ethenyl]-1H-pyrazole], 124 to 134 °C; in that of `COc1cc(OCCN(C)C)ccc1/C=C/c1cc(/C=C/c2ccc3cc[nH]c3c2)[nH]n1` [Example 76, 3-[(1E)-2-[4-[2-(dimethylamino)ethoxy]-2-methoxyphenyl]ethenyl]-5-[(1E)-2-(1H-indol-6-yl)ethenyl]-1H-pyrazole], 109 to 112 °C. In the case of `CCN(CC)c1ccc(/C=C/c2cc(/C=C/c3ccc4cc[nH]c4c3)[nH]n2)c(OC)c1` [Example 104, 3-[(1E)-2-(4-diethylamino-2-methoxyphenyl)ethenyl]-5-[(1E)-2-(1H-indol-6-yl)ethenyl]-1H-pyrazole] it was 104 to 108 °C; in that of `COc1cc(OCCN2CCCCC2)ccc1/C=C/c1cc(/C=C/c2ccc3cc[nH]c3c2)[nH]n1` [Example 26, 3-[(1E)-2-(1H-indol-6-yl)ethenyl]-5-[(1E)-2-[2-methoxy-4-(2-piperidinoethoxy)phenyl]ethenyl]-1H-pyrazole], 150 to 155 °C; in that of `COc1cc(OCc2ccncc2)ccc1/C=C/c1cc(/C=C/c2ccc3[nH]ccc3c2)[nH]n1` [Example 45, 3-[(1E)-2-(1H-indol-5-yl)ethenyl]-5-[(1E)-2-[2-methoxy-4-(4-pyridylmethoxy)phenyl]ethenyl]-1H-pyrazole], 133 to 141 °C. In the case of `C(=C\c1cc(/C=C/c2c[nH]c3ccccc23)[nH]n1)/c1cccc(OCc2ccccn2)c1` [Example 13, 3-[(1E)-2-(1H-indol-3-yl)ethenyl]-5-[(1E)-2-[3-(2-pyridylmethoxy)phenyl]ethenyl]-1H-pyrazole] it was 198 to 201 °C; in that of `COc1cc(OCc2cccnc2)ccc1/C=C/c1cc(/C=C/c2c[nH]c3ccccc23)[nH]n1` [Example 42, 3-[(1E)-2-(1H-indol-3-yl)ethenyl]-5-[(1E)-2-[2-methoxy-4-(3-pyridylmethoxy)phenyl]ethenyl]-1H-pyrazole], 129 to 137 °C.

The values are drawn from patent publication US9399635B2, “Pyrazole derivative” (GREEN TECH CO., LTD., priority 2011, dated 2016).
